Laboratory results published in patent publication US10125126B2, “N-cycloalkyl-N-[(heterocyclylphenyl)methylene]-(thio)carboxamide derivatives” (BAYER CROPSCIENCE AG, priority 2012, dated 2018).

What was measured:
Alternaria brassicae = experiment: In vivo preventive test on Alternaria brassicae (leaf spot on radish); details: 500 ppm of active ingredient; radish plants; 6 days after contamination
Description: In Vivo Preventive Test on Alternaria brassicae (Leaf Spot on Radish) […] Radish plants (“Pernod Clair” variety), sown in starter cups on a 50/50 peat soil pozzolana substrate and grown at 17° C., are treated at the cotyledon stage by spraying with the active ingredient prepared as described above. Plants, used as controls, are treated with the mixture of acetone/tween/DMSO/water not containing the active material. After 24 hours, the plants are contaminated by spraying the cotyledons with an aqueous suspension of Alternaria brassicae spores (50 000 spores per mL). The spores are collected from a 15-day-old culture. The contaminated radish plants are incubated at 20° C. and at 100% relative humidity. Grading (% of efficacy) is carried out 6 days after the contamination, in comparison with the control plants.

Septoria tritici = experiment: In vivo preventive test on Septoria tritici (wheat); details: 500 ppm of active ingredient; wheat plants; 24 days after contamination
Outline: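 Scipion wheat grown at 22° C, sprayed at 1-leaf stage (10 cm); controls received acetone/tween/DMSO/water without active. Inoculated 24 h later with S. tritici spores (500 000/mL), held 72 h at 18° C, 100% RH, then 21 days at 90% RH. % efficacy vs controls scored 24 days post-inoculation.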

Botrytis cinerea = experiment: In vivo preventive test on Botrytis cinerea (grey mould); details: 500 ppm of active ingredient; gherkin plants; 4 to 5 days after contamination
Outline: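 Gherkin plants at cotyledon stage Z11 were sprayed with compound, then inoculated 24 h later with Botrytis cinerea spores (50 000 spores per mL in nutrient solution). Plants were kept at 17° C and 90% RH, and percent efficacy versus solvent-treated controls was graded 4 to 5 days after contamination.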

Sphaerotheca fuliginea = experiment: In vivo preventive test on Sphaerotheca fuliginea (powdery mildew on cucurbits); details: Podosphaera fuliginea, 288 h, 500 ppm of active ingredient; gherkin plants; 12 days after contamination; read-out: Efficacy
Outline: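 Gherkin plants ("Vert petit de Paris") grown at 24 °C were sprayed at cotyledon stage Z11; controls received acetone/tween/DMSO/water without active. Inoculation 24 h later by spraying cotyledons with 100 000 spores/mL. Efficacy (%) graded 12 days post-contamination versus controls.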

Leptosphaeria nodorum = experiment: In vivo preventive test on Leptosphaeria nodorum (wheat); details: 500 ppm of active ingredient, evaluated 8 days after inoculation
Description: In Vivo Preventive Test on Leptosphaeria nodorum Test (Wheat) [table] To produce a suitable preparation of active compound, 1 part by weight of active compound or active compound combination is mixed with the stated amounts of solvent and emulsifier, and the concentrate is diluted with water to the desired concentration. To test for preventive activity, young plants are sprayed with the preparation of active compound or active compound combination at the stated rate of application. After the spray coating has been dried, the plants are sprayed with a spore suspension of Leptosphaeria nodorum. The plants remain for 48 hours in an incubation cabinet at approximately 20° C. and a relative atmospheric humidity of approximately 100%.

Puccinia recondita = experiment: In vivo preventive test on Puccinia recondita (brown rust on wheat); details: 500 ppm of active ingredient; wheat plants; 12 days after contamination
Outline: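 Wheat plants ("Scipion") at 1-leaf stage, grown at 22° C, were sprayed with compound, then inoculated 24 h later with Puccinia recondita spores (100 000 spores per mL). Efficacy (%) graded 12 days after inoculation relative to solvent-treated controls.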

[1] = log P by HPLC on a reversed-phase column (C 18), EEC Directive 79/831 Annex V.A8; format: physicochemical; details: logP
Outline: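 Retention times were converted to log P by linear interpolation between two successive unbranched alkan-2-ones (3 to 16 carbon atoms) of known log P used for calibration. Elution ran at 40° C with a linear gradient from 10% to 90% acetonitrile against 0.1% aqueous formic acid.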

[2] = tested on: Blumeria graminis f.sp. hordei; experiment: In vivo preventive test on Blumeria graminis (barley); details: 500 ppm of active ingredient, evaluated 7 days after inoculation
Description: In Vivo Preventive Test on Blumeria graminis (Barley) [table] To produce a suitable preparation of active compound, 1 part by weight of active compound or active compound combination is mixed with the stated amounts of solvent and emulsifier, and the concentrate is diluted with water to the desired concentration. To test for preventive activity, young plants are sprayed with the preparation of active compound or active compound combination at the stated rate of application. After the spray coating has been dried, the plants are dusted with spores of Blumeria graminis f.sp. hordei.

SMILES: CC(C)c1ccc(-c2csc3ccccc23)cc1CN(C(=O)c1c(C(F)F)nn(C)c1F)C1CC1 [I.157, N-[5-(1-benzothiophen-3-yl)-2-isopropylbenzyl]-N-cyclopropyl-3-(difluoromethyl)-5-fluoro-1-methyl-1H-pyrazole-4-carboxamide]
- Efficacy (Alternaria brassicae): 100%
- Efficacy (Septoria tritici): 90%
- Efficacy (Botrytis cinerea): 100%
- pest or weed control at 500 ppm (Sphaerotheca fuliginea): 100%
- Efficacy (Leptosphaeria nodorum): 100%
- Efficacy (Puccinia recondita): 98%
- chromatographic logP [1]: 5.17
- Efficacy [2]: 100%
